The source of these data is patent publication US11111222B2, “Hydroxyeicosatrienoic acid compounds and their use as therapeutic agents” (THE REGENTS OF THE UNIVERSITY OF MICHIGAN, priority 2016, dated 2021).

For assay [1], the system named is washed platelets from WT or 12-LOX−/− mice. The assay can be described thus: Platelet aggregation, washed murine platelets (lumi-aggregometer). Type of assay: cell-based, mouse. Particulars: 10 μM PUFA, 10 min. How it is done:
The 12-LOX null C57BL/6 (12-LOX^−/−) mice were generated using homozygous breeding pairs and wild-type (WT) C57BL/6 ([…]) mice were purchased (Jackson Laboratory). […] Mouse blood was diluted with equal volumes of Tyrode's buffer (10 mM HEPES, 11.9 mM sodium bicarbonate, 127.2 mM sodium chloride, 5 mM potassium chloride, 0.4 mM sodium phosphate monobasic, 1 mM magnesium chloride, and 5 mM D-glucose) and centrifuged at 200×g. Platelet-rich-plasma (PRP) was transferred to a tube containing 10× acid citrate dextrose solution (ACD) (2.5% sodium citrate, 1.5% citric acid, and 2% D-glucose) and apyrase (0.02 U/mL), and centrifuged at 2000×g. Platelet count was adjusted to 3×10^8 platelets/mL with Tyrode's buffer for all studies.
A lumi-aggregometer (Chrono-log model 700D) was used to measure platelet aggregation under stirring conditions (1100 rpm) at 37° C. Prior to agonist stimulation platelets were incubated with a preselected PUFA or oxylipin for 10 minutes.

The test system of assay [2] is thrombus formation (platelet and fibrin) in cremaster arterioles. The assay can be described thus: Laser-induced cremaster arteriole thrombosis model. Type of assay: in vivo, mouse. Particulars: vs vehicle. How it is done: Wild type (WT) or 12-LOX^−/− mice (12 weeks of age) were anesthetized by intraperitoneal injection of ketamine/xylazine (100 mg/kg) prior to the exposure of the cremaster muscle arterioles under a dissecting microscope with constant perfusion of preheated bicarbonate-buffered saline (Reheman et al., J Thromb Haemost 3:875-883, 2005; Reheman et al., Blood 113:1809-1817, 2009; Wang et al., J Clin Invest 124:4281-4293, 2014). Anti-platelet (DyLight 488 anti-GPIb, 1 μg/g) and anti-fibrin (Alexa Fluor 647, 0.3 μg/g) antibodies were administered via jugular vein catheter prior to intravital microscopy. DGLA (50 mg/kg) or DMSO (vehicle control) were dissolved in a formulation of 5% DMSO and 45% PEG300 in sterile 1×PBS and then intravenously injected into mice 10 minutes prior to induction of thrombosis. 12(S)-HETrE (6 mg/kg) or equal volume of DMSO (vehicle control) was also intravenously injected into mice 10 minutes prior to induction of thrombosis. Multiple independent thrombi were induced in the arterioles (30-50 μm diameter) in each mouse by a laser ablation system (Ablate! photoablation system; Intelligent Imaging Innovations, Denver, Colo., USA). Images of thrombus formation were acquired in real-time under 63× water-immersion objective with a Zeiss Axio Examiner Z1 fluorescent microscope equipped with solid laser launch system (LaserStack; Intelligent Imaging Innovations) and high-speed sCMOS camera. All captured images were analyzed on Slidebook (Intelligent Imaging Innovations Inc., Denver, Colo., USA).

In the next assay the test system is Rap1. The assay can be described thus: Rap1 activation in washed platelets (Rap1-GTP pull-down, Western blot). In kind it is cell-based, mouse. Particulars: 10 μM DGLA, PAR4-AP 50, 100, 200 μM. How it is done:
Following 1 minute of stimulation platelets were lysed with 2× platelet lysis buffer (100 mM Tris HCl, pH 7.4, 150 mM NaCl, 2% IGEPAL, 1% sodium deoxycholate, and 0.05% SDS) containing protease and phosphatase inhibitors. The cytoskeleton was pelleted by centrifugation at 14000×g for 7 minutes at 4° C. Active Rap1 was selectively captured from the supernatant by incubating GST-tagged Rap1 binding domain of RalGDS conjugated to glutathione sepharose beads for one hour on a nutator at 4° C. The beads were then washed 5 times with IP buffer and resuspended in 2× Laemmeli reducing buffer (62.5 mM Tris-HCl, pH 6.8, 2% SDS, 25% glycerol, 0.01% bromophenol blue, 5% β-mercaptoethanol). The samples were boiled for 10 minutes and then loaded onto a 10% SDS-polyacrylamide gel electrophoresis (PAGE) gel. Western blots were performed using a Rap1 antibody and quantified with a LI-COR imager.

A further assay relates to platelets. The note with it: cited from earlier work.
A further assay concerns VASP (serine 157). Kind of assay: VASP phosphorylation in human platelets. Type of assay: cell-based. The note with it: DGLA 10 μM, 1 min; vs DMSO. How it is done: Washed platelets were treated with PUFA or PUFA metabolite (12(S)-HETrE or compound IIc) for one minute, then directly lysed in 5× Laemmeli sample buffer (1.5 M Tris-HCl, pH 6.8, glycerol, 5% β-mercaptoethanol, 10% sodium dodecyl sulfate (SDS), and 1% bromophenol blue). The samples were boiled for five minutes and then run on a 10% SDS-PAGE gel. The levels of total and phospho-VASP (serine 157) were quantified by Western Blot using an Odyssey imaging system (LI-CoR).

Setting [3] is: WT mice, 50 mg/kg i.v. 10 min before laser injury.

The structures appear in SMILES notation.

On to `CCCCC/C=C\C/C=C\C/C=C\CCCCCCC(=O)O` [DGLA, Dihomo-γ-linolenic acid], for which the platelet aggregation entry in assay [1] (12-LOX−/− mouse platelets, EC80 PAR4-AP (200 μM) or collagen (2 or 5 μg/mL), vs vehicle) is “failed to inhibit platelet aggregation”; in assay [1] (WT mouse platelets, EC80 PAR4-AP (100 μM) or collagen (5 μg/mL), vs DMSO) it was “significant inhibition of aggregation”. Moreover, the “fibrin accumulation in thrombi” value in assay [2] (12-LOX−/− mice, 50 mg/kg i.v.) was “did not differ”. Further, the “platelet accumulation in thrombi” value in assay [2] (12-LOX−/− mice, 50 mg/kg i.v.) is reported as “did not differ”. In addition, the “fibrin accumulation at the site of injury” value in assay [2] (setting [3]) is on record as “but not fibrin accumulation”. Also, in assay [2] (setting [3]), the “platelet accumulation at the site of injury” value is listed as “significant reduction in platelet”. Moreover, the “Rap1 activation (Rap1-GTP)” value is listed as “unable to inhibit Rap1 activation” in the assay with Rap1 (12-LOX−/− mouse platelets) and “inhibited Rap1 activation at all concentrations of PAR4-AP tested” in the assay on Rap1 (WT mouse platelets). The “platelet aggregation ex vivo” value with platelets (literature (Farrow and Willis 1975; Kernoff 1977; Willis 1974)) was “inhibit platelet aggregation ex vivo”. The “ex vivo aggregation of platelets after dosing” value with platelets (platelets from humans, baboons, rabbits and rats that received daily oral doses) is on record as “significant reduction in ex vivo aggregation”. For the same compound, in the assay on VASP (serine 157), the “VASP phosphorylation (S157)” value is given as “enhanced VASP phosphorylation”.
